# Measured values published in US10238641B2, “Materials and methods for diagnosis, prevention and/or treatment of stress disorders and conditions associated with A-beta peptide aggregation” (The United States of America as represented by the …, priority 2008, dated 2019).
# Columns and labels:
# cortical cells = test: Survival of cortical cells exposed to cotinine alone, MTT assay; format: cell-based, rat; details: various concentrations of cotinine, 48 hours
# Procedure: Cortical cells were subjected to various concentrations of cotinine and cell viability was assessed after 48 hours by MTT assay (see FIG. 1). Statistical significance of the differences in MTT values was assessed by one-way ANOVA with Tukey post-test. ns, not significant difference with (P>0.05).
# [1] = test system: phospho-CREB (Serine 133); test: BDNF-stimulated phosphorylation of CREB after Aβ exposure, Western blot; format: cell-based, rat; details: 5 μM Aβ1-42 + 10 μM cotinine 5 h, then BDNF 1 h
# Procedure: Western blot analysis of the BDNF-stimulated phosphorylation of CREB in extracts of cortical cells. Cells were exposed to vehicle, 5 μM Aβ alone or 5 μM Aβ plus 10 μM cotinine for 5 hours, then to BDNF (50 ng/ml) for 1 hour and analyzed for CREB by western blot (FIG. 6B). The histogram (FIG. 6A) represents the levels of phospho-CREB (Ser133) normalized against β-Tubulin used as a control of protein loading. The values represent significant (*) difference with P<0.05.
# Rat embryonic cortical cells were cultured in 24-well plates (0.3×10^6 cells/well) for 7 days, washed with PBS, collected and disrupted by sonication in ice-cold cell lysis buffer containing (20 mM Tris (pH 7.4), 150 mM NaCl, 1 mM ethylenediaminetetraacetic acid (EDTA), 1 mM egtazic acid (EGTA), 1% triton, 2.5 mM Na pyrophosphate, 1 mM β-glycerophosphate, 1 mM Na orthovanadate, 1 μg/ml leupeptin) (Cell Signaling Technology, Beverly, Mass., USA), 1 mM phenylmethylsulfonyl fluoride (PMSF) (Sigma) complete protease inhibitor cocktail (Roche Molecular Biochemicals, Indianapolis, Ind., USA). […] Protein concentration of supernatants was measured by Bio-Rad protein assay (Bio-Rad, Hercules, Calif., USA), and equal amounts of protein were separated by gradient (4-20%) SDS-PAGE and transferred to nitrocellulose membranes (BA83 0.2 μm; Bio-Rad). […]
# [2] = test system: JNK1/2 phosphorylated (pJNK) at Thr183 and Thr185; test: BDNF-induced pJNK in primary cortical neurons, Western blot; format: cell-based; details: BDNF 100 ng/ml plus cotinine 10 μM, 1 h
# Procedure: After 7 days in vitro, cortical neurons were treated with BDNF (100 ng/ml) alone or BDNF plus cotinine (10 μM) for 1 h. After treatments, cells were lysed and whole cell extracts were analyzed for the active forms of JNK and ERKs, pJNK and pERK1/2 by Western blot.
# DARPP-32 = DARPP-32 activity in neurons; format: cell-based; details: neurons from rat brain cells
smiles,measurement,setting,value
CN1C(=O)CC[C@H]1c1cccnc1 [cotinine],survival of cortical neurons exposed to cotinine alone,cortical cells,not Affected
same,increase of phosphoCREB versus cells treated with BDNF plus Aβ1-42,[1],34%
same,phosphoCREB level relative to control cells,[1],indistinguishable from the control cell values
same,levels of active JNK1/2 (pJNK) induced by BDNF,[2],decreased the levels of the active forms of JNK1/2
same,activity of DARPP-32,DARPP-32,increases the activity of DARPP-32
